From US5760036A, “Aminediol protease inhibitors” (E. R. Squibb & Sons, Inc., priority 1995, dated 1998)

Legend:
HIV protease = biological target: T1, HIV protease (Human immunodeficiency virus type 1 group M subtype B, UniProt P04585); test: HIV Protease Assay; assay type: biochemical; details: pH 5.5, 10 μM inhibitor, 4% DMSO, 450 μM substrate, pH 5.5, 30 minutes at 37° C., RP-HPLC; read-out: HIV Protease % Inhibition at 10 μM
T1 construct: and purified protease
Procedure, shortened: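 At a single final concentration of 10 μM (4% DMSO), inhibitors were added to a 30-minute, 37° C reaction of purified enzyme with 450 μM H2N-Val-Ser-Gln-Asn-(β-naphthyl-alanine)-Pro-Val-Ile-OH at pH 5.5 (sodium acetate, BSA). Hydrolysis was quantified by reverse-phase HPLC with 220 nm detection after acid quench.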

[1] = test system: RF strain of HIV (CEM-SS cells); test: Cell Culture Anti-HIV Activity (cell viability, formazan); assay type: cell-based; details: Human immunodeficiency virus 1, CEM-SS, 144 h, CEM-SS cells, RF strain of HIV, multiplicity of infection 0.04, 6 days at 37° C., 450 nm; read-out: HIV (CEM Cells) IC50
Procedure, shortened: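 Half-log compound dilutions added to CEM-SS cells (5000/well) carrying HIV RF (MOI 0.04), 6 days, 37° C. Cell protection measured as formazan from tetrazolium, A450. IC50: drug level restoring infected-cell formazan to 50% of the uninfected untreated control.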

CC(C)(C)OC(=O)N[C@@H](Cc1ccccc1)[C@H](O)CNC[C@H](O)[C@H](Cc1ccccc1)NC(=O)OC(C)(C)C [Compound 5, [1S-[1R*,2S*(2R*,3R*)]]-[3-[[3-[[(1,1-Dimethylethoxy)carbonyl]amino]-2-hydroxy-4-phenylbutyl]amino]-2-hydroxy-1-(phenylmethyl)propyl]carbamic acid, 1,1-dimethylethyl ester]
inhibition at 10 µM (HIV protease): 41% | IC50 [1]: 2800 nM

CC(C)(C)OC(=O)N[C@@H](Cc1ccccc1)[C@H](O)CNC[C@@H](O)[C@H](Cc1ccccc1)NC(=O)OC1CCc2ccccc21 (stereo partly drawn) [Compound 144, [1S-(1R*,2S*)]-[Iminobis[2-hydroxy-1-(phenylmethyl)-3,1-propanediyl)]-bis[carbamic acid], 1,1-dimethylethyl-2,3-dihydro-1H-inden-1-yl ester]
inhibition at 10 µM (HIV protease): 88% | IC50 [1]: 1000 nM

CC(C)[C@H](NC(=O)[C@@H](O)Cc1ccccc1)C(=O)N[C@@H](Cc1ccccc1)[C@H](O)CNC[C@@H](O)[C@H](Cc1ccccc1)NC(=O)OC(C)(C)C [Compound 77, [S-[1R*,2S*(2S*,3R*,N^2 R*]]-N-[3-[[3-[[(1,-Dimethylethoxy)carbonyl]amino]-2-hydroxy-4-phenylbutyl]amino]-2-hydroxy-(phenyyl-methyl)propyl]N^2-(2-hydroxy-1-oxo-3-phenyl-propyl)-L-valinamide]
inhibition at 10 µM (HIV protease): 99% | IC50 [1]: 200 nM

CC(C)(C)OC(=O)N[C@@H](Cc1ccccc1)[C@H](O)CNC[C@@H](O)[C@H](Cc1ccccc1)NC(=O)[C@@H](NC(=O)OCc1nc2ccccc2o1)C(C)(C)C [Compound 257, [S-[1R*,2S*(2S*,3R*)]]-[2,2-Dimethyl-1-[[[3-[[3-[[(1,1-dimethylethoxy)carbonyl]amino]-2-hydroxy-4-phenylbutyl]-amino]-2-hydroxy-1-(phenylmethyl)propyl]amino]-carbonyl]propyl]carbamic acid, (2-benzoxazolyl)methyl ester]
inhibition at 10 µM (HIV protease): 99% | IC50 [1]: 30 nM

CC(C)(C)OC(=O)N[C@@H](Cc1ccccc1)[C@H](O)CNC[C@@H](O)[C@H](Cc1ccc(OCC(=O)N2CCOCC2)cc1)NC(=O)OC(C)(C)C [Compound 226, [1S-[1R*,2S*(2S*,3R*)]]-[3-[[3-[[(1,1-Dimethylethoxy)carbonyl]amino]-2-hydroxy-4-(4-[2-(4-morpholinyl)-2-oxo-ethoxy]phenyl]butyl]amino]-2-hydroxy-1-(phenylmethyl)propyl]carbamic acid, 1,1-dimethylethyl ester]
inhibition at 10 µM (HIV protease): 98% | IC50 [1]: 50 nM

CC(C)(C)OC(=O)N[C@@H](Cc1ccccc1)[C@H](O)CNC[C@@H](O)[C@H](Cc1ccccc1)NC(=O)OC(C)(C)CNC=O [Compound 236, [1S-(1R*,2S*)]-[Iminobis[2-hydroxy-1-(phenylmethyl)-3,1-propanediyl]]biscarbamic acid, 2-(formylamino)-1,1-dimethylethyl 1,1-dimethylethyl ester]
inhibition at 10 µM (HIV protease): 89% | IC50 [1]: 700 nM

CC(C)[C@H](NC(=O)OCc1nc2ccccc2c(=O)[nH]1)C(=O)N[C@@H](Cc1ccccc1)[C@H](O)CNC[C@@H](O)[C@H](Cc1ccccc1)NC(=O)OC(C)(C)C (relative stereo) [Compound 222, [1R*,2S*(2S*,3R*)]-N^2-[[(3,4-Dyhydro-4-oxo-2-quinazolinyl)methoxy]carbonyl]-N-[3-[[3-[[(1,1-dimethylethoxy)carbonyl]amino]-2-hydroxy-4-phenylbutyl]amino]-2-hydroxy-1-(phenylmethyl)propyl]-L-valinamide]
inhibition at 10 µM (HIV protease): 98% | IC50 [1]: 380 nM

CC(C)(C)OC(=O)N[C@@H](Cc1ccccc1)[C@H](O)CNC[C@@H](O)[C@H](Cc1ccccc1)NC(=O)O[C@H]1COC[C@@H]1O [Compound 316, [1S-(1R*,2S*), (3S-trans)]-[Iminobis[2-hydroxy-1-(phenylmethyl)-3,1-propanediyl]]bis[carbamic acid], 4-hydroxy-3-tetrahydrofuranyl 1,1-dimethylethyl ester]
inhibition at 10 µM (HIV protease): 97% | IC50 [1]: 620 nM

CC(C)(C)OC(=O)N[C@@H](Cc1ccccc1)[C@H](O)CNC[C@@H](O)[C@H](Cc1ccccc1)NC(=O)C(O)C(C)(C)C (stereo partly drawn) [Compound 214]
inhibition at 10 µM (HIV protease): 97% | IC50 [1]: 50 nM

CC(C)[C@H](NC(=O)OCc1nc2ccccc2o1)C(=O)N[C@@H](Cc1ccccc1)[C@H](O)CNC[C@@H](O)[C@H](Cc1ccccc1)NC(=O)OC(C)(C)C (relative stereo) [Compound 171, S-[1R*,2S*(2S*,3R*)]-N^2-[[(2-Benzo-xazolyl)methoxy]carbonyl]-N-[3-[[3-[[(1,1-dimethylethoxy)carbonyl]amino]-2-hydroxy-4-phenylbutyl]amino]-2-hydroxy-1-(phenylmethyl)-propyl]-L-valinamide]
inhibition at 10 µM (HIV protease): 99% | IC50 [1]: 50 nM

COCCOc1ccc(C[C@H](NC(=O)OC(C)(C)C)[C@H](O)CNC[C@@H](O)[C@H](Cc2ccccc2)NC(=O)OC(C)(C)CO)cc1 [Compound 299, [1S-[1R*, 2S*(2S*,3R*)]-[3-[[(1,1-Dimethylethoxy)carbonyl]amino]-2-hydroxy-4-[4-(2-methoxyethoxy)phenyl]butyl]amino]-2-hydroxy-1-(phenylmethyl)propyl]carbamic acid, 1-(hydroxymethyl)-1-methylethyl ester]
inhibition at 10 µM (HIV protease): 99% | IC50 [1]: 240 nM

CC(C)[C@H](NC(=O)OC(C)(C)C)C(=O)N[C@@H](Cc1ccccc1)[C@H](O)CNC[C@@H](O)[C@H](Cc1ccccc1)NC(=O)OC(C)(C)C [Compound 58, [S-[1R*,2S*(2S*,3R*)]-N-[3-[[3-[[(1,1-Dimethylethoxy)carbonyl]amino]-2-hydroxy-4-phenylbutyl]amino]-2-hydroxy-1-(phenylmethyl)-propyl-N^2-[(1,1-dimethylethoxy)-carbonyl]-L-valinamide]
inhibition at 10 µM (HIV protease): 57% | IC50 [1]: 1000 nM

CC(C)(C)OC(=O)N[C@@H](Cc1ccccc1)[C@H](O)CNC[C@@H](O)[C@H](Cc1ccccc1)NC(=O)C1NC(=O)c2ccccc21 (stereo partly drawn) [Compound 223, [1S-[1R*,2S*(2S*,3R*)]]-[3-[[3-[[(2,3-Dihydro-3-oxo-1H-isoindol-1-yl)carbonyl]amino]-2-hydroxy-4-phenylbutyl]amino]-2-hydroxy-1-(phenylmethyl)propyl]carbamic acid, 1,1-dimethylethyl ester]
inhibition at 10 µM (HIV protease): 89% | IC50 [1]: 1400 nM

COCC(C)(C)OC(=O)N[C@@H](Cc1ccccc1)[C@H](O)CNC[C@@H](O)[C@H](Cc1ccccc1)NC(=O)OC(C)(C)C [Compound 168, [R-(R*,S*)]-[Iminobis[2-hydroxy-1-(phenylmethyl)-3,1-propanediyl)biscarbamic acid, 1,1-dimethylethyl 2-methoxy-1,1-dimethylethyl ester]
inhibition at 10 µM (HIV protease): 61% | IC50 [1]: 1400 nM

COCCOc1ccc(C[C@H](NC(=O)OC(C)(C)CO)[C@H](O)CNC[C@@H](O)[C@H](Cc2ccccc2)NC(=O)OC(C)(C)C)cc1 [Compound 283, [1S-[1R*,2S*(2S*,3R*)]]-[3-[[3-[[(1,1-Dimethylethoxy)carbonyl]amino]-2-hydroxy-4-phenylbutyl]amino]-2-hydroxy-1-8 [4-(2-methoxyethoxy)phenyl]methyl]propyl]carbamic acid, 2-hydroxy-1,1-dimethylethyl ester]
inhibition at 10 µM (HIV protease): 100% | IC50 [1]: 110 nM
